The text below walks through data of patent US8318723B2, “Pyrazine compounds, their use and methods of preparation” (Boehringer Ingelheim International GmbH, priority 2006, dated 2012).

Usually IC50 stands for the concentration that inhibits the measured activity by half.

In this test the target is PIM-2 (Homo sapiens, UniProt Q9P1W9). Briefly: PIM-2 assay, IC50 determination (luciferase-luciferin ATP depletion, 10-point dose response). Format: biochemical. Particulars: for IC50: 10 nM PIM-2, 1 μM ATP, 50 μM peptide substrate, 15 minutes at room temperature.
Sequence of PIM-2 (Q9P1W9 whole entry): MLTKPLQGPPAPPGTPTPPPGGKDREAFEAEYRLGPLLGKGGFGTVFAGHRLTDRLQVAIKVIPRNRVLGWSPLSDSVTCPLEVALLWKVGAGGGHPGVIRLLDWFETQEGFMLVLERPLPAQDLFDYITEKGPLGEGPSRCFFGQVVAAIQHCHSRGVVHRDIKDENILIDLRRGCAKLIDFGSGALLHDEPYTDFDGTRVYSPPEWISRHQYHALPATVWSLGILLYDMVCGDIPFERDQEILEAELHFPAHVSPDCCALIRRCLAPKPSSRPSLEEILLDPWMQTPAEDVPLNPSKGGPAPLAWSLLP

Experimental: The screen utilizes the Zymark Allegro UHTS system to dispense reagents, buffers and test compounds. To Greiner 384-well, white Lumitrac-200 plates, 20 μL/well of 20 nM PIM-2 (10 nM final assay concentration) in assay buffer (25 mM HEPES, pH 7.5, 10 mM MgCl2, 50 mM KCl, 0.2% CHAPS, 100 μM Na3VO4, 0.2% BSA and 200 μM TCEP) is delivered, followed by 10 μL/well of test compounds (3 μg/mL final assay concentration in 1% DMSO) that were previously dissolved in DMSO and diluted in assay buffer. A 10 μL volume of a solution containing 4 μM ATP (1 μM final assay concentration) and 20 μM peptide substrate (Biotin-[sequence], 5 μM final assay concentration) diluted in assay buffer is added to each well and the contents of the wells are mixed. […] Positive control wells receive 10 μL/well of assay buffer in lieu of compound. The kinase reaction mixture is incubated for 60 minutes at room temperature. A 40 μL/well of ATP detection reagent is then added to the reaction mixture. The assay plates are read on an Analyst (Molecular Devices) in luminescence mode following additional 15 minutes of incubation at room temperature. Luminescence signals are converted to percent of control (POC) values using the formula: POC=(BCTRL−Signal)÷(BCTRL−PCTRL), where Signal is the test well signal, BCTRL is the average of background control well signals on the plate and PCTRL is the average of positive control well signals on the plate.
The IC50 of the compounds is determined with a modification of the above method. The assay is performed in 96-well Lumitrac-200, white, plates. Test compounds dissolved in DMSO (5 mg/mL) are serially diluted 1 to 3 in DMSO for 10-point dose response. The DMSO dilutions are further diluted in the assay buffer and 15 μL of this dilution is added to the assay plate, for a final starting assay concentration of 5 μg/mL in 1% DMSO. A 15 μL volume of 40 nM PIM-2 followed by 30 μL of a solution containing 2 μM ATP and 100 μM peptide substrate, all diluted in assay buffer, is added to each well for a final assay concentration of 10 nM PIM-2, 1 μM ATP, and 50 μM peptide substrate. The kinase reaction mixture is incubated for 15 minutes at room temperature. A 60 μL/well of ATP detection reagent is then added to the reaction mixture. The assay plates are read on an Analyst (Molecular Devices) in luminescence mode following additional 15 minutes of incubation at room temperature. IC50 is determined by fitting the POC of the dose response data to a 4-parameter logistic equation.

Turning to `O=C(O)/C=C/c1cccc(-c2cncc(N[C@H]3CC[C@H](O)CC3)n2)c1` [compound 3, (E)-3-{3-[6-(4-Hydroxy-cyclohexylamino)-pyrazin-2-yl]-phenyl}-acrylic acid], the IC50 amounted to 265 nM.

With `O=C(O)/C=C/c1cccc(-c2cncc(NCC3CCNCC3)n2)c1` [compound 4, (E)-3-(3-{6-[(Piperidin-4-ylmethyl)-amino]-pyrazin-2-yl}-phenyl)-acrylic acid], the IC50 was 57 nM. Same read-out and setting: the value for `NCCCCNc1cncc(-c2cccc(/C=C/C(=O)O)c2)n1` [compound 5, (E)-3-{3-[6-(4-Amino-butylamino)-pyrazin-2-yl]-phenyl}-acrylic acid] was 22 nM.

In turn, `NCCCNc1cncc(-c2cccc(/C=C/C(=O)O)c2)n1` [compound 6, (E)-3-{3-[6-(3-Amino-propylamino)-pyrazin-2-yl]-phenyl}-acrylic acid] registered an IC50 of 27 nM. On to `CC(C)(CN)CNc1cncc(-c2cccc(/C=C/C(=O)O)c2)n1` [compound 7, (E)-3-{3-[6-(3-Amino-2,2-dimethyl-propylamino)-pyrazin-2-yl]-phenyl}-acrylic acid], for which the IC50 was 27 nM. Still for that read-out and setting: the value for `CN(C)CCCNc1cncc(-c2cccc(/C=C/C(=O)O)c2)n1` [compound 8, (E)-3-{3-[6-(3-Dimethylamino-propylamino)-pyrazin-2-yl]-phenyl}-acrylic acid] was 94 nM; that for `CN(C)CCNc1cncc(-c2cccc(/C=C/C(=O)O)c2)n1` [compound 9, (E)-3-{3-[6-(2-Dimethylamino-ethylamino)-pyrazin-2-yl]-phenyl}-acrylic acid] was 99 nM; that for `CNCCCN(C)c1cncc(-c2cccc(/C=C/C(=O)O)c2)n1` [compound 10, (E)-3-(3-{6-[Methyl-(3-methylamino-propyl)-amino]-pyrazin-2-yl}-phenyl)-acrylic acid] was 110 nM. Still for that read-out and setting: as for `CCNCCCNc1cncc(-c2cccc(/C=C/C(=O)O)c2)n1` [compound 11, (E)-3-{3-[6-(3-Ethylamino-propylamino)-pyrazin-2-yl]-phenyl}-acrylic acid], the figure is 120 nM; as for `NCCNc1cncc(-c2cccc(/C=C/C(=O)O)c2)n1` [compound 12, (E)-3-{3-[6-(2-Amino-ethylamino)-pyrazin-2-yl]-phenyl}-acrylic acid], 140 nM. On the same count and under the same terms, the value for `CNCCN(C)c1cncc(-c2cccc(/C=C/C(=O)O)c2)n1` [compound 13, (E)-3-(3-{6-[Methyl-(2-methylamino-ethyl)-amino]-pyrazin-2-yl}-phenyl)-acrylic acid] was 240 nM; that for `CN(C)CCCN(C)c1cncc(-c2cccc(/C=C/C(=O)O)c2)n1` [compound 14, (E)-3-(3-{6-[(3-Dimethylamino-propyl)-methyl-amino]-pyrazin-2-yl}-phenyl)-acrylic acid] was 370 nM. Molecule `NC(=O)CNc1cncc(-c2cccc(/C=C/C(=O)O)c2)n1` [compound 15, (E)-3-{3-[6-(Carbamoylmethyl-amino)-pyrazin-2-yl]-phenyl}-acrylic acid] had a half-maximal inhibitory concentration (IC50) of 84 nM. In turn, `NC(=O)CCNc1cncc(-c2cccc(/C=C/C(=O)O)c2)n1` [compound 16, (E)-3-{3-[6-(2-Carbamoyl-ethylamino)-pyrazin-2-yl]-phenyl}-acrylic acid] came in with an IC50 of 250 nM.

The molecule `O=C(O)/C=C/c1cccc(-c2cncc(NCCO)n2)c1` [compound 17, (E)-3-{3-[6-(2-Hydroxy-ethylamino)-pyrazin-2-yl]-phenyl}-acrylic acid] gave a half-maximal inhibitory concentration (IC50) of 300 nM. `O=C(O)/C=C/c1cccc(-c2cncc(NCCCO)n2)c1` [compound 18, (E)-3-{3-[6-(3-Hydroxy-propylamino)-pyrazin-2-yl]-phenyl}-acrylic acid] showed an IC50 of 310 nM. With `COCCCNc1cncc(-c2cccc(/C=C/C(=O)O)c2)n1` [compound 19, (E)-3-{3-[6-(3-Methoxy-propylamino)-pyrazin-2-yl]-phenyl}-acrylic acid], the half-inhibitory concentration (IC50) is 480 nM. Still for that read-out and setting: as for `COCCNc1cncc(-c2cccc(/C=C/C(=O)O)c2)n1` [compound 20, (E)-3-{3-[6-(2-Methoxy-ethylamino)-pyrazin-2-yl]-phenyl}-acrylic acid], the figure is 1200 nM; as for `CC(=O)NCCNc1cncc(-c2cccc(/C=C/C(=O)O)c2)n1` [compound 21, (E)-3-{3-[6-(2-Acetylamino-ethylamino)-pyrazin-2-yl]-phenyl}-acrylic acid], 1020 nM; as for `NCC1CCN(c2cncc(-c3cccc(/C=C/C(=O)O)c3)n2)CC1` [compound 22, (E)-3-{3-[6-(4-Aminomethyl-piperidin-1-yl)-pyrazin-2-yl]-phenyl}-acrylic acid], 21 nM. Still for that read-out and setting: the value for `CN(C)C1CCN(c2cncc(-c3cccc(/C=C/C(=O)O)c3)n2)CC1` [compound 24, (E)-3-{3-[6-(4-Dimethylamino-piperidin-1-yl)-pyrazin-2-yl]-phenyl}-acrylic acid] was 72 nM.

As to `NC1CCN(c2cncc(-c3cccc(/C=C/C(=O)O)c3)n2)CC1` [compound 25, (E)-3-{3-[6-(4-Amino-piperidin-1-yl)-pyrazin-2-yl]-phenyl}-acrylic acid], it took 115 nM to reach half-maximal inhibition (IC50). Still for that read-out and setting: the value for `CN1CCN(c2cncc(-c3cccc(/C=C/C(=O)O)c3)n2)CC1` [compound 26, (E)-3-[3-(4-Methyl-3,4,5,6-tetrahydro-2H-[1,2′]bipyrazinyl-6′-yl)-phenyl]-acrylic acid] was 150 nM; that for `O=C(O)/C=C/c1cccc(-c2cncc(N3CCCNCC3)n2)c1` [compound 27, (E)-3-[3-(6-[1,4]Diazepan-1-yl-pyrazin-2-yl)-phenyl]-acrylic acid] was 185 nM; that for `O=C(O)/C=C/c1cccc(-c2cncc(N3CCNCC3)n2)c1` [compound 28, (E)-3-[3-(3,4,5,6-Tetrahydro-2H-[1,2′]bipyrazinyl-6′-yl)-phenyl]-acrylic acid] was 200 nM. Molecule `O=C(O)/C=C/c1cccc(-c2cncc(N3CCCN(Cc4ccccc4)CC3)n2)c1` [compound 29, (E)-3-{3-[6-(4-Benzyl-[1,4]diazepan-1-yl)-pyrazin-2-yl]-phenyl}-acrylic acid] returned an IC50 of 230 nM. On the same count and under the same terms, the value for `CN(C)C1CCN(c2cncc(-c3cccc(/C=C/C(=O)O)c3)n2)C1` (centres unmarked) [compound 30, (E)-3-{3-[6-(3-Dimethylamino-pyrrolidin-1-yl)-pyrazin-2-yl]-phenyl}-acrylic acid] was 270 nM; that for `CC(=O)N1CCCN(c2cncc(-c3cccc(/C=C/C(=O)O)c3)n2)CC1` [compound 31, (E)-3-{3-[6-(4-Acetyl-[1,4]diazepan-1-yl)-pyrazin-2-yl]-phenyl}-acrylic acid] was 880 nM. On the same count and under the same terms, the value for `O=C(O)/C=C/c1cccc(-c2cncc(N3CCC(O)CC3)n2)c1` [compound 32, (E)-3-{3-[6-(4-Hydroxy-piperidin-1-yl)-pyrazin-2-yl]-phenyl}-acrylic acid] was 1050 nM; that for `O=C(O)/C=C/c1cccc(-c2cncc(N3CCC(CO)CC3)n2)c1` [compound 33, (E)-3-{3-[6-(4-Hydroxymethyl-piperidin-1-yl)-pyrazin-2-yl]-phenyl}-acrylic acid] was 2100 nM.

Molecule `O=C(O)/C=C/c1cccc(-c2cncc(N3CCOCC3)n2)c1` [compound 34, (E)-3-[3-(6-Morpholin-4-yl-pyrazin-2-yl)-phenyl]-acrylic acid] returned an IC50 of 1700 nM.

`O=C(O)/C=C/c1cccc(-c2cncc(N3CCCCCC3)n2)c1` [compound 35, (E)-3-[3-(6-Azepan-1-yl-pyrazin-2-yl)-phenyl]-acrylic acid] returned a half-inhibitory concentration (IC50) of 3300 nM. The same measure, in the same setting: as for `CN1CCCN(c2cccc(-c3cccc(/C=C/C(=O)O)c3)n2)CC1` [compound 36, (E)-3-{3-[6-(4-Methyl-[1,4]diazepan-1-yl)-pyridin-2-yl]-phenyl}-acrylic acid], the figure is 46 nM; as for `CN1CCCN(c2cncc(-c3cncc(/C=C/C(=O)O)c3)n2)CC1` [compound 37, (E)-3-{5-[6-(4-Methyl-[1,4]diazepan-1-yl)-pyrazin-2-yl]-pyridin-3-yl}-acrylic acid], 385 nM; as for `CN1CCCN(c2cncc(-c3cccc(CCC(=O)O)c3)n2)CC1` [compound 38, 3-[3-[6-(4-Methyl-[1,4]diazepan-1-yl)-pyrazin-2-yl]-phenyl]-propionic acid], 1400 nM. The same measure, in the same setting: as for `COC(=O)/C=C/c1cccc(-c2cncc(N3CCCN(C)CC3)n2)c1` [compound 39, (E)-3-{3-[6-(4-Methyl-[1,4]diazepan-1-yl)-pyrazin-2-yl]-phenyl}-acrylic acid methyl ester], the figure is 1400 nM; as for `CN1CCCN(c2cncc(-c3cccc(/C=C/C(N)=O)c3)n2)CC1` [compound 40, (E)-3-{3-[6-(4-Methyl-[1,4]diazepan-1-yl)-pyrazin-2-yl]-phenyl}-acrylamide], 1200 nM.

Turning to `CN1CCCN(c2cncc(-c3cccc(/C=C/CO)c3)n2)CC1` [compound 41, (E)-3-{3-[6-(4-Methyl-[1,4]diazepan-1-yl)-pyrazin-2-yl]-phenyl}-prop-2-en-1-ol], the “POC @ 5 μg/mL” value (percent of control at 5 μg/mL (final starting assay concentration of dose response)) is given as 69POC @ 5 μg/mL. Consider `CN1CCCN(c2cncc(-c3cccc(/C=C/C#N)c3)n2)CC1` [compound 42, (E)-3-{3-[6-(4-Methyl-[1,4]diazepan-1-yl)-pyrazin-2-yl]-phenyl}-acrylonitrile], for which the midpoint of inhibition, the IC50, lay at 13000 nM. This counts as double-digit micromolar.

`CN1CCCN(c2cncc(-c3cccc(/C=C/c4nnn[nH]4)c3)n2)CC1` [compound 43, 1-Methyl-4-(6-{3-[(E)-2-(1H-tetrazol-5-yl)-vinyl]-phenyl}-pyrazin-2-yl)-[1,4]diazepane]: the half-maximal inhibitory concentration (IC50) worked out at 89 nM.

Turning to `CN1CCCN(c2cncc(-c3cccc(/C=C/C(=O)NS(C)(=O)=O)c3)n2)CC1` [compound 44, N-((E)-3-{3-[6-(4-Methyl-perhydro-1,4-diazepin-1-yl)-pyrazin-2-yl]-phenyl}-acryloyl)-methanesulfonamide], the IC50 was 2400 nM. This IC50 lies about 27-fold higher than the previous one.
